Key:
Assay type in all cases: cell-based, human
[1] = system: COPD epithelium-microvascular endothelium co-culture; test: Inflammatory cytokine secretion from the microvascular channel of COPD co-culture devices (Multiplex Cytokine Detection System); conditions: budesonide 10 nM or PFI-2 500 nM, poly (I:C) 10 μg/ml 6 h
From the text: (§1) FIGS. 28A-28C show capability of determining drug efficacy on neutrophil capture and adhesion and inflammation suppression in a small airway mimicking device according to one or more embodiments described herein. (FIG. 28A) Representative immunofluorescence images showing adhesion of recruited neutrophils under three different conditions: (left) no drug; (middle) budesonide; (right) PFI-2. Neutrophils were stained with Hoechst immediately prior to experiment to allow visualization and quantification. (FIG. 28B) Bar graph showing percentage change in neutrophil adhesion to activated endothelium as imaged in FIG. 28A. (n=3 different donors per condition; 7-8 devices per condition from 4 independent experiments; 4-5 distinct fields per chip). (FIG. 28C) A set of bar graphs showing levels of different cytokine secretion modulated by the indicated drug or under no treatment. Cytokines measured include: neutrophil-attractant IL-8, GROα, and GM-CSF, monocyte-chemoattractant MCP-1, and acute inflammation associated cytokine IL-6. (n=3 donors per condition).
COPD epithelium-microvascular endothelium co-culture devices were established, e.g., as described in Example 1 or 2, and then were either treated with the corticosteroid drug budesonide (10 nM) or PFI-2 (a bromodomain-containing protein 4 (BRD4) inhibitor drug; 500 nM), or left untreated. The COPD epithelium was then stimulated with poly (I:C) 10 μg/ml via the “airway lumen” channel for 6 h and then examined for adhesion of recruited neutrophils. Neutrophils were stained with Hoechst immediately prior to experiment to allow visualization and quantification. Representative immunofluorescence images of the three conditions are illustrated in FIG. 28A.
To compare the ability of budesonide and PFI-2 in suppressing inflammatory cytokine secretion, secreted cytokines from the “microvascular” channel of the co-culture devices were also analyzed by Multiplex Cytokine Detection System prior to neutrophil recruitment assay.

[2] = system: neutrophil adhesion to activated endothelium; test: Neutrophil capture and adhesion in COPD epithelium-microvascular endothelium co-culture device after poly (I:C); conditions: budesonide 10 nM or PFI-2 500 nM; poly (I:C) 10 μg/ml for 6 h; compared with no treatment
From the text: as §1, with “(FIG. 28C) A set of bar graphs showing levels of different cytokine secretion modulated by the indicated drug or under no treatment.” left out, “(n=3 donors per condition).” left out
COPD epithelium-microvascular endothelium co-culture devices were established, e.g., as described in Example 1 or 2, and then were either treated with the corticosteroid drug budesonide (10 nM) or PFI-2 (a bromodomain-containing protein 4 (BRD4) inhibitor drug; 500 nM), or left untreated. […] Neutrophils were stained with Hoechst immediately prior to experiment to allow visualization and quantification. […]
Effects of budesonide and PFI-2 on neutrophil adhesion were quantified.

[3] = system: differentiated airway cells; test: IL-13 induced asthma-like phenotype in the airway-on-a-chip
From the text: FIGS. 30A-30D show induction of asthma-like phenotype in the airway-on-a-chip for assessment of drug efficacy. […] FIG. 30B is a bar graph showing quantification of globet cell coverage based on the fluorescent images (representative images shown in FIG. 30A). FIG. 30C is a set of bar graphs showing secretion of G-CSF and GM-CSF by IL-13 stimulated cells, as compared to cells without IL-13 stimulation. FIG. 30D is a bar graph showing cilia beating frequency under indicated conditions. In FIGS. 30B-30D, the “airway” devices were also used to assess the drug efficacy of Tofacitinib, a JAK inhibitor, by treating the IL-13 stimulated cells with Tofacitinib, and measuring each phenotype as described above accordingly.
To develop asthma-like phenotype in the devices described herein, airway cells were differentiated in the devices, e.g., using the methods as described in Example 1 or 2, and then stimulated with IL-13 to induce asthma-like phenotype in the devices. IL-13 is a protein secreted by immune cells which is found in high quantities in lungs of asthmatics.
The “airway” devices were then used to assess the drug efficacy of Tofacitinib, a JAK inhibitor.

[4] = system: COPD and healthy differentiated epithelial cells; test: Cytokine response of differentiated COPD and healthy epithelia to TLR stimulation in the device; conditions: for IL8 secretion: LPS stimulation; for M-CSF secretion: poly(I:C) stimulation
From the text: FIGS. 26A-26E are data graphs showing COPD disease phenotype can be established in the device according to one or more embodiments described herein. […] FIG. 26B compares IL-8 secretion between COPD and healthy epithelia after LPS (lipopolysaccharides) stimulation. FIG. 26C compares M-CSF secretion between COPD and healthy epithelia after […] (polyinosinic:polycytidylic acid) stimulation.
It was next sought to determine cytokine production in response to TLR stimulation. Cytokines are molecules that are involved in inflammation and their generation can be modulated by TLR activation. After the well-differentiated (i.e. mucociliary) epithelium (normal and COPD-derived) was stimulated with lipopolysaccharides (LPS), a qPCR was performed on the cells to compare inflammatory response between COPD and healthy epithelia in the devices described herein. LPS is a bacterial derived molecule that stimulates TLR4. […] This is in line with clinical reports and other ex vivo observations that COPD patients are hyper-reactive inflammation-wise and produce more pro-inflammatory mediators. […] M-CSF is a cytokine that promotes survival and differentiations of a subset of immune cells, e.g., macrophages, in our bodies. This agrees with general observations that in the lungs of COPD patients there is generally an increased number of macrophages as compared to the number of macrophages in healthy individuals.

[5] = system: differentiated airway epithelial cells; test: Infection response of differentiated airway epithelial cells to TLR-3 ligand poly I:C in the device
Protocol: FIGS. 11A-11D illustrate an exemplary method of evaluating an infection response of differentiated small airway epithelial cells and optionally immune cells in a device in accordance with an embodiment, and experimental data resulting therefrom. FIG. 11A is a schematic diagram illustrating an example method to evaluate an infection response in the device. Primary small airway epithelial cells were seeded on the membrane in the mesochannel (an “airway lumen” channel) for differentiation into ciliated and/or mucus-secreting cells following the differentiation method as described in FIG. 5A. Upon differentiation of the airway epithelial cells, another surface of the membrane (facing the microchannel, the “blood vessel” channel) could be seeded with or without endothelial cells. The differentiated cells in the mesochannel were then challenged with a toll-like receptor 3 (TLR-3) ligand poly I:C to induce inflammation. A fluid comprising immune cells (e.g., human monocytes) was introduced into the “blood vessel” channel, either with a static fluid or a flowing fluid, to determine effects of TLR-3-induced inflammation on cytokine/chemokine profiles of the differentiated cells and/or recruitment of immune cells (e.g., monocytes and/or neutrophils). […] FIG. 11C is a set of data showing quantification of monocytes attached to the TLR-3 activated differentiated epithelial cells in the device and the associated fluorescent images. FIG. 11D is a graph showing gene expression of differentiated epithelial cells after treatment with or without a TLR-3 ligand poly I:C.
By way of example only, FIGS. 11A-11D illustrate the capability of using one embodiment of the device described herein to model a bacterial/viral infection. […] Cytokines or chemokines secreted into the fluid flowing in the mesochannel and/or microchannel can be measured by collecting from the outlet an aliquot of the fluid exiting the mesochannel and/or microchannel, which is then subjected to cytokine/chemokine expression analyses.

[6] = system: pulmonary microvascular endothelial cells; test: Cell adhesion molecule gene expression in endothelial cells after apical poly (I:C) challenge of co-cultured epithelium; conditions: apical poly (I:C) 10 μg/ml for 6 h, compared to cells without challenge
From the text: FIGS. 27A-27C show establishment of a three-cell type microfluidic co-culture system comprising ciliated epithelium, endothelium and circulating leukocytes. (FIG. 27A) Left panel: a 3D cross-sectional diagram of one embodiment of the devices described herein used to re-create post-capillary venules (major sites of leukocyte recruitment and adhesion in vivo). Middle panel: a schematic diagram showing a 3-cell type co-culture of epithelium, endothelium and neutrophils (all primary cells). Right panel: vertical immunofluorescence cross-section of ciliated epithelium and endothelium bilayer on-device. Ciliated cells were labeled for β-tubulin IV and endothelial cells were stained with anti-CD31/PECAM-1 antibody. Nuclei were counterstained with DAPI. Scale bar, 20 μm. […] Following initial attachment the neutrophil crawled over apical surface of activated endothelium and then firmly adhered (times indicated in seconds). Neutrophils and endothelial cells had been live stained with CellTracker Red and Calcein AM, respectively. (FIG. 27C) Bar graphs showing E-selectin and VCAM1 mRNA levels in endothelia cells upon treatment of differentiated epithelial cells with or without poly (I:C). (3 devices per condition were used) […]

[7] = drug treatment of IL-13 stimulated cultures
[8] = IL-13 stimulation compared to cells without IL-13 stimulation
[9] = healthy donor and COPD epithelial cells, poly (I:C) stimulation

Compound: Cl.O=C([C@@H](Cc1cccc(C(F)(F)F)c1)NS(=O)(=O)c1cc(F)c2c(c1)CCNC2)N1CCCC1 [PFI-2]
- secretion of GM-CSF [1]: significantly lowered
- secretion of GROα [1]: significantly lowered
- secretion of IL-6 [1]: significantly lowered
- secretion of IL-8 [1]: significantly lowered
- secretion of MCP-1 [1]: significantly lowered
- neutrophil recruitment / adhesion to activated endothelium [2]: significantly lowered

Compound: C[C@@H]1CCN(C(=O)CC#N)C[C@@H]1N(C)c1ncnc2[nH]ccc12 [Tofacitinib]
- G-CSF secretion [3, 7]: decrease GM-CSF and G-CSF secretion
- GM-CSF secretion [3, 7]: decrease GM-CSF and G-CSF secretion
- cilia beating frequency [3, 7]: increase cilia beating frequency
- number of goblet cells [3, 7]: decrease the number of goblet cells

Compound: IL-13: a protein secreted by immune cells which is found in high quantities in lungs of asthmatics
- cilia beating frequency [3, 8]: lower cilia beating frequency
- number of goblet cells [3, 8]: higher number of goblet cells
- secretion of G-CSF [3, 8]: higher secretion
- secretion of GM-CSF [3, 8]: higher secretion

Compound: lipopolysaccharides [LPS]
- IL8 secretion ([4]; COPD epithelial cells): selectively induced
- IL8 secretion ([4]; healthy epithelial cells): without increasing

Compound: polyinosinic:polycytidylic acid [poly (I:C)]
- release of chemokines (monocyte and neutrophil chemoattractants) ([5]; TLR-3 activation of differentiated airway epithelial cells): stimulates release of chemokines
- monocyte adhesion to differentiated epithelial cells ([5]; TLR-3 stimulation): enhances monocyte adhesion
- epithelial cells' gene expression of IP-10 ([5]; differentiated epithelial cells with or without poly I:C): significantly increases
- M-CSF secretion ([4]; COPD epithelial cells): selectively up-regulated
- expression of IP-10 [4, 9]: induced in both healthy donor and COPD epithelial cells
- expression of RANTES [4, 9]: induced in both healthy donor and COPD epithelial cells
- M-CSF secretion ([4]; healthy epithelial cells): no significant change
- E-selectin gene expression in endothelial cells [6]: significant up-regulation
- VCAM-1 transcript levels in endothelial cells [6]: higher, but not statistically significant

From patent US11940441B2, “Low shear microfluidic devices and methods of use and manufacturing thereof” (President and Fellows of Harvard College, priority 2013, dated 2024)
